Measurements reported in US12421253B2 (Mirati Therapeutics, Inc., priority 2020, dated 2025).

How the values were obtained:
KRas^Q61H = KRas^Q61H (Homo sapiens, UniProt P01116, Q61H); assay: biochemical
KRas^G12R = target: T1, KRas^G12R (Homo sapiens, UniProt P01116, G12R); assay: KRas binding assay (TR-FRET displacement of Cy5 labelled tracer)
T1 construct: […]; biotin (biotinylated); purchased Accelegan Inc

KRas^G12S = target: T2, KRas^G12S (Homo sapiens, UniProt P01116, G12S); assay: as above
T2 construct: […]; biotin (biotinylated); purchased Accelegan Inc
T2 sequence (P01116 1-169 isoform P01116-2 G12S): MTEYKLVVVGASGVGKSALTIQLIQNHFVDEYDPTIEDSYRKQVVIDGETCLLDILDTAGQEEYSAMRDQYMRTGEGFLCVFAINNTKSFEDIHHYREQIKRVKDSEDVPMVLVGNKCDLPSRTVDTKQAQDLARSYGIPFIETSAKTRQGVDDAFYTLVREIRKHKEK

KRas^G12D = target: T3, KRas^G12D (Homo sapiens, UniProt P01116, G12D); assay: as above
T3 construct: […]; biotin (biotinylated); purchased Accelegan Inc
T3 sequence (P01116 1-169 isoform P01116-2 G12D): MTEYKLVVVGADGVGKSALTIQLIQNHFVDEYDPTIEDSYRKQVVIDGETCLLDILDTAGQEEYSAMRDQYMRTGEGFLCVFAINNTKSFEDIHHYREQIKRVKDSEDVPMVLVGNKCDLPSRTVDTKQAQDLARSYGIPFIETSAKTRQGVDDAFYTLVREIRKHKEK

KRas^G13D = KRas^G13D (Homo sapiens, UniProt P01116, G13D); assay: biochemical
Chain of KRas^G13D (P01116 1-169 isoform P01116-2 G13D): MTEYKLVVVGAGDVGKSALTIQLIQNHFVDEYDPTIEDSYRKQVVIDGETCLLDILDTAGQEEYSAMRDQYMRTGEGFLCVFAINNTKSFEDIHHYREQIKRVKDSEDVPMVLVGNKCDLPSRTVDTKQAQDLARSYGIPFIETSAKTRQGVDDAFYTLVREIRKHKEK

KRas^G12A = target: T4, KRas^G12A (Homo sapiens, UniProt P01116, G12A); assay: KRas binding assay (TR-FRET displacement of Cy5 labelled tracer)
T4 construct: […]; biotin (biotinylated); purchased Accelegan Inc
T4 sequence (P01116 1-169 isoform P01116-2 G12A): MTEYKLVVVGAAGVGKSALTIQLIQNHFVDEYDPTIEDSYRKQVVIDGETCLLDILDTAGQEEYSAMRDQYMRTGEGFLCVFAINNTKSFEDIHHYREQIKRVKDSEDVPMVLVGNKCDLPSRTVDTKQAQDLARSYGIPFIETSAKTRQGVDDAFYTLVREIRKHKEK

KRas^G12C = KRas^G12C (Homo sapiens, UniProt P01116, G12C); assay: biochemical
Chain of KRas^G12C (P01116 1-169 isoform P01116-2 G12C): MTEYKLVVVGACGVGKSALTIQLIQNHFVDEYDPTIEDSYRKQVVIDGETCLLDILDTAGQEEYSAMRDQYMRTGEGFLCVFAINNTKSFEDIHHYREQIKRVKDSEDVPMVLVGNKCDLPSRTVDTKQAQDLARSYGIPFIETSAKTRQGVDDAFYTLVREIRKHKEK

KRas^WT = target: T5, KRas^WT (Homo sapiens, UniProt P01116); assay: KRas binding assay (TR-FRET displacement of Cy5 labelled tracer)
T5 construct: […]; biotin (biotinylated); purchased Accelegan Inc
T5 sequence (P01116 1-169 isoform P01116-2): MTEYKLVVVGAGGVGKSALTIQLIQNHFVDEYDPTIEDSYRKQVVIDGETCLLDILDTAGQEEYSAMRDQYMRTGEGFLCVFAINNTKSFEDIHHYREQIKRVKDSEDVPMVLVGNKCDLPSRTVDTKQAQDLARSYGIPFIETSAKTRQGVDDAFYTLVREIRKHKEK

KRas^G12V = target: T6, KRas^G12V (Homo sapiens, UniProt P01116, G12V); assay: as above
T6 construct: […]; biotin (biotinylated); purchased Accelegan Inc
T6 sequence (P01116 1-169 isoform P01116-2 G12V): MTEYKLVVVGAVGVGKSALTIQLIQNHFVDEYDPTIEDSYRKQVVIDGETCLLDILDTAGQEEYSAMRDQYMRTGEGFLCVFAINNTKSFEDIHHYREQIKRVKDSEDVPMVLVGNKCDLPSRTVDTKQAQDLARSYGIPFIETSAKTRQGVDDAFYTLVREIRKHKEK

Chain of KRas^Q61H (P01116 1-169 isoform P01116-2 Q61H): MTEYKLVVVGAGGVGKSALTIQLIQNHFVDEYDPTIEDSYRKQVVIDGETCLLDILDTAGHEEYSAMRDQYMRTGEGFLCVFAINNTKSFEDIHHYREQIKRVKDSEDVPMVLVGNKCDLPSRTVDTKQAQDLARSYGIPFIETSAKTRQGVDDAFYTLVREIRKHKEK
T1 sequence (P01116 1-169 isoform P01116-2 G12R): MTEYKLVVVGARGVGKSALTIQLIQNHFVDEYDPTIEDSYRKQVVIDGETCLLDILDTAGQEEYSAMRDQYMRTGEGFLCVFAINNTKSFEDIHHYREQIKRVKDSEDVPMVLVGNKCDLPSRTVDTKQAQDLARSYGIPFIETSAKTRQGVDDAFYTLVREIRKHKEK

IC50 (KRas^Q61H) | IC50 (KRas^G12R) | IC50 (KRas^G12S) | IC50 (KRas^G12D) | IC50 (KRas^G13D) | IC50 (KRas^G12A) | IC50 (KRas^G12C) | IC50 (KRas^WT) | IC50 (KRas^G12V) | Structure (SMILES)
757 nM | 244 nM | 883 nM | 2120 nM | 699 nM | 793 nM | 525 nM | 860 nM | 1290 nM | CCc1cccc2cccc(N3CCc4c(nc(OCC56CCCN5CCC6)nc4N4CCCC(n5ccc(C)n5)C4)C3)c12 (stereo not drawn) [Example 94, 7-(8-ethylnaphthalen-1-yl)-4-(3-(3-methyl-1H-pyrazol-1-yl)piperidin-1-yl)-2-((tetrahydro-1H-pyrrolizin-7a(5H)-yl)methoxy)-5,6,7,8-tetrahydropyrido[3,4-d]pyrimidine]
1210 nM | 460 nM | 1350 nM | 3040 nM | 1400 nM | 1110 nM | 928 nM | 1150 nM | 1810 nM | CCc1cccc2cccc(N3CCc4c(nc(OCC56CCCN5CCC6)nc4N4CCCC(c5ccn[nH]5)C4)C3)c12 (stereo not drawn) [Example 115, 4-(3-(1H-pyrazol-5-yl)piperidin-1-yl)-7-(8-ethylnaphthalen-1-yl)-2-((tetrahydro-1H-pyrrolizin-7a(5H)-yl)methoxy)-5,6,7,8-tetrahydropyrido[3,4-d]pyrimidine]
1240 nM | 234 nM | 698 nM | 2620 nM | 1100 nM | 427 nM | 256 nM | 678 nM | 701 nM | CCc1cccc2cccc(N3CCc4c(nc(OCC56CCCN5CCC6)nc4N4CCCC(c5n[nH]c(C)n5)C4)C3)c12 (stereo not drawn) [Example 93, 7-(8-ethylnaphthalen-1-yl)-4-(3-(5-methyl-1H-1,2,4-triazol-3-yl)piperidin-1-yl)-2-((tetrahydro-1H-pyrrolizin-7a(5H)-yl)methoxy)-5,6,7,8-tetrahydropyrido[3,4-d]pyrimidine]
1150 nM | 397 nM | 854 nM | 2720 nM | 1180 nM | 548 nM | 741 nM | 894 nM | 937 nM | CCc1cccc2cccc(N3CCc4c(nc(OCC56CCCN5CCC6)nc4N4CCCC(c5ncn[nH]5)C4)C3)c12 (stereo not drawn) [Example 53, 4-(3-(1H-1,2,4-triazol-5-yl)piperidin-1-yl)-7-(8-ethylnaphthalen-1-yl)-2-((hexahydro-1H-pyrrolizin-7a-yl)methoxy)-5,6,7,8-tetrahydropyrido[3,4-d]pyrimidine]
76 nM | 168 nM | 154 nM | 192 nM | 66 nM | 128 nM | 115 nM | 54 nM | 165 nM | CCc1cccc2cccc(N3CCc4c(nc(OCC56CCCN5CCC6)nc4N4CCOCC(n5cccn5)C4)C3)c12 (stereo not drawn) [Example 9, 4-(7-(8-ethylnaphthalen-1-yl)-2-((tetrahydro-1H-pyrrolizin-7a(5H)-yl)methoxy)-5,6,7,8-tetrahydropyrido[3,4-d]pyrimidin-4-yl)-6-(1H-pyrazol-1-yl)-1,4-oxazepane]
606 nM | 291 nM | 696 nM | 1120 nM | 552 nM | 628 nM | 475 nM | 712 nM | 958 nM | CCc1cccc2cccc(N3CCc4c(nc(OCC56CCCN5CCC6)nc4N4CCCC(n5cccn5)C4)C3)c12 (stereo not drawn) [Example 82, 4-(3-(1H-pyrazol-1-yl)piperidin-1-yl)-7-(8-ethylnaphthalen-1-yl)-2-((tetrahydro-1H-pyrrolizin-7a(5H)-yl)methoxy)-5,6,7,8-tetrahydropyrido[3,4-d]pyrimidine]

Continued, molecule first:

Structure (SMILES) | IC50 (KRas^Q61H) | IC50 (KRas^G12R) | IC50 (KRas^G12S) | IC50 (KRas^G12D) | IC50 (KRas^G13D) | IC50 (KRas^G12A) | IC50 (KRas^G12C) | IC50 (KRas^WT) | IC50 (KRas^G12V)
CCc1cccc2cccc(N3CCc4c(nc(OCC56CCCN5CCC6)nc4N4CCCC(c5nc(C)c(C)[nH]5)C4)C3)c12 (stereo not drawn) [Example 120, 4-(3-(4,5-dimethyl-1H-imidazol-2-yl)piperidin-1-yl)-7-(8-ethylnaphthalen-1-yl)-2-((tetrahydro-1H-pyrrolizin-7a(5H)-yl)methoxy)-5,6,7,8-tetrahydropyrido[3,4-d]pyrimidine] | 2100 nM | 1320 nM | 2480 nM | 6380 nM | 2010 nM | 1530 nM | 573 nM | 1810 nM | 4210 nM
CCc1cccc2cccc(N3CCc4c(nc(OCC56CCCN5CCC6)nc4N4CCC(O)C(CO)CC4)C3)c12 (stereo not drawn) [Example 13, 1-(7-(8-ethylnaphthalen-1-yl)-2-((tetrahydro-1H-pyrrolizin-7a(5H)-yl)methoxy)-5,6,7,8-tetrahydropyrido[3,4-d]pyrimidin-4-yl)-5-(hydroxymethyl)azepan-4-ol] | 57 nM | 99 nM | 70 nM | 290 nM | 40 nM | 51 nM | 82 nM | 41 nM | 73 nM
CCc1cccc2cccc(N3CCc4c(nc(OCC56CCCN5CCC6)nc4N4CCCC(c5nnc6n5CCC6)C4)C3)c12 (stereo not drawn) [Example 106, 4-(3-(6,7-dihydro-5H-pyrrolo[2,1-c][1,2,4]triazol-3-yl)piperidin-1-yl)-7-(8-ethylnaphthalen-1-yl)-2-((tetrahydro-1H-pyrrolizin-7a(5H)-yl)methoxy)-5,6,7,8-tetrahydropyrido[3,4-d]pyrimidine] | 1460 nM | 1790 nM | 752 nM | 2230 nM | 1070 nM | 628 nM | 369 nM | 1420 nM | 1300 nM
CCc1cccc2cccc(N3CCc4c(nc(OCC56CCCN5CCC6)nc4N4CCCC(S(=O)(=O)NC)C4)C3)c12 (stereo not drawn) [Example 125, 1-(7-(8-ethylnaphthalen-1-yl)-2-((tetrahydro-1H-pyrrolizin-7a(5H)-yl)methoxy)-5,6,7,8-tetrahydropyrido[3,4-d]pyrimidin-4-yl)-N-methylpiperidine-3-sulfonamide] | 1050 nM | 1490 nM | 665 nM | 1030 nM | 720 nM | 1320 nM | 1200 nM | 651 nM | 1410 nM
CCc1cccc2cccc(N3CCc4c(nc(OCC56CCCN5CCC6)nc4N4CCCCCC(S(C)(=O)=O)C4)C3)c12 (stereo not drawn) [Example 14, 7-(8-ethylnaphthalen-1-yl)-4-(3-(methylsulfonyl)azocan-1-yl)-2-((tetrahydro-1H-pyrrolizin-7a(5H)-yl)methoxy)-5,6,7,8-tetrahydropyrido[3,4-d]pyrimidine] | 135 nM | 233 nM | 171 nM | 256 nM | 118 nM | 145 nM | 173 nM | 119 nM | 112 nM
CCc1cccc2cccc(N3CCc4c(nc(OCC56CCCN5CCC6)nc4N4CCCC(c5nc(C)c(C(=O)NC6CCC6)o5)C4)C3)c12 (stereo not drawn) [Example 140, N-cyclobutyl-2-(1-(7-(8-ethylnaphthalen-1-yl)-2-((tetrahydro-1H-pyrrolizin-7a(5H)-yl)methoxy)-5,6,7,8-tetrahydropyrido[3,4-d]pyrimidin-4-yl)piperidin-3-yl)-4-methyloxazole-5-carboxamide] | 2230 nM | 1440 nM | 2000 nM | 5210 nM | 1760 nM | 1660 nM | 1180 nM | 1920 nM | 2380 nM
CCc1cccc2cccc(N3CCc4c(nc(OCC56CCCN5CCC6)nc4N4CCC(O)C(CO)C4)C3)c12 (stereo not drawn) [Example 109, 1-(7-(8-ethylnaphthalen-1-yl)-2-((tetrahydro-1H-pyrrolizin-7a(5H)-yl)methoxy)-5,6,7,8-tetrahydropyrido[3,4-d]pyrimidin-4-yl)-3-(hydroxymethyl)piperidin-4-ol] | 898 nM | 387 nM | 612 nM | 1770 nM | 893 nM | 735 nM | 456 nM | 519 nM | 690 nM
CCc1cccc2cccc(N3CCc4c(nc(OCC56CCCN5CCC6)nc4N(C)CC4(O)CC4)C3)c12 [Example 98, 1-(((7-(8-ethylnaphthalen-1-yl)-2-((tetrahydro-1H-pyrrolizin-7a(5H)-yl)methoxy)-5,6,7,8-tetrahydropyrido[3,4-d]pyrimidin-4-yl)(methyl)amino)methyl)cyclopropan-1-ol] | 537 nM | 514 nM | 482 nM | 1070 nM | 629 nM | 453 nM | 330 nM | 444 nM | 341 nM
CCc1cccc2cccc(N3CCc4c(nc(OCC56CCCN5CCC6)nc4N4CCCC(c5cc(=O)[nH][nH]5)C4)C3)c12 (stereo not drawn) [Example 87, 5-(1-(7-(8-ethylnaphthalen-1-yl)-2-((tetrahydro-1H-pyrrolizin-7a(5H)-yl)methoxy)-5,6,7,8-tetrahydropyrido[3,4-d]pyrimidin-4-yl)piperidin-3-yl)-1,2-dihydro-3H-pyrazol-3-one] | 844 nM | 165 nM | 1150 nM | 4880 nM | 1470 nM | 1140 nM | 470 nM | 1010 nM | 1870 nM
